Measured values from patent publication US11117892B2, “Pyrrolo-pyridine derivative compound, method for preparing same, and pharmaceutical composition containing same as active ingredient for prevention or treatment of protein kinase-related diseases” (DAEGU-GYEONGBUK MEDICAL INNOVATION FOUNDATION, priority 2017, dated 2021).
Read-outs that look alike come from different tables or passages of the source.

Experiments:
Assay in all cases: scanMAX Kinase assay panel
Type in all cases: binding
Conditions in all cases: read-out: % control
[1] = target: ABL1(F317L)-phosphorylated (Homo sapiens (Human), UniProt P00519, F317L)
Summary of the method: (§1)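 Using scanMAX, compound selectivity across kinases is determined. The output is % control, bounded by a DMSO control at 100% and a reference positive compound at 0%.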

ACVR1B = ACVR1B (Homo sapiens (Human), UniProt P36896)
Summary of the method: as §1

ARK5 = ARK5 (Homo sapiens (Human), UniProt O60285)
Summary of the method: as §1

BIKE = BIKE (Homo sapiens (Human), UniProt Q9NSY1)
Summary of the method: as §1

CAMK1G = CAMK1G (Homo sapiens (Human), UniProt Q96NX5)
Summary of the method: as §1

CDK8 = CDK8 (Homo sapiens (Human), UniProt P49336)
Summary of the method: as §1

CIT = CIT (Homo sapiens (Human), UniProt O14578)
Summary of the method: as §1

CSNK1G3 = CSNK1G3 (Homo sapiens (Human), UniProt Q9Y6M4)
Summary of the method: as §1

CSNK2A2 = CSNK2A2 (Homo sapiens (Human), UniProt P19784)
Summary of the method: as §1

DDR1 = DDR1 (Homo sapiens (Human), UniProt Q08345)
Summary of the method: as §1

EGFR(L858R, T790M) = EGFR(L858R, T790M) (Homo sapiens (Human), UniProt P00533, L858R/T790M)
Summary of the method: as §1

EPHA4 = EPHA4 (Homo sapiens (Human), UniProt P54764)
Summary of the method: as §1

EPHA5 = EPHA5 (Homo sapiens (Human), UniProt P54756)
Summary of the method: as §1

EPHB2 = EPHB2 (Homo sapiens (Human), UniProt P29323)
Summary of the method: as §1

ERN1 = ERN1 (Homo sapiens (Human), UniProt O75460)
Summary of the method: as §1

GAK = GAK (Homo sapiens (Human), UniProt O14976)
Summary of the method: as §1

GSK3A = GSK3A (Homo sapiens (Human), UniProt P49840)
Summary of the method: as §1

KIT(D816H) = KIT(D816H) (Homo sapiens (Human), UniProt P10721, D816H)
Summary of the method: as §1

LYN = LYN (Homo sapiens (Human), UniProt P07948)
Summary of the method: as §1

MAP3K3 = MAP3K3 (Homo sapiens (Human), UniProt Q99759)
Summary of the method: as §1

MAP3K4 = MAP3K4 (Homo sapiens (Human), UniProt Q9Y6R4)
Summary of the method: as §1

MEK4 = MEK4 (Homo sapiens (Human), UniProt P45985)
Summary of the method: as §1

MINK = MINK (Homo sapiens (Human), UniProt Q8N4C8)
Summary of the method: as §1

MKNK2 = MKNK2 (Homo sapiens (Human), UniProt Q9HBH9)
Summary of the method: as §1

MRCKB = MRCKB (Homo sapiens (Human), UniProt Q9Y5S2)
Summary of the method: as §1

MYO3A = MYO3A (Homo sapiens (Human), UniProt Q8NEV4)
Summary of the method: as §1

NIK = NIK (Homo sapiens (Human), UniProt Q99558)
Summary of the method: as §1

PAK3 = PAK3 (Homo sapiens (Human), UniProt O75914)
Summary of the method: as §1

PDPK1 = PDPK1 (Homo sapiens (Human), UniProt O15530)
Summary of the method: as §1

PIKFYVE = PIKFYVE (Homo sapiens (Human), UniProt Q9Y2I7)
Summary of the method: as §1

PIP5K1A = PIP5K1A (Homo sapiens (Human), UniProt Q99755)
Summary of the method: as §1

RAF1 = RAF1 (Homo sapiens (Human), UniProt P04049)
Summary of the method: as §1

RET(V804M) = RET(V804M) (Homo sapiens (Human), UniProt P07949, V804M)
Summary of the method: as §1

SNRK = SNRK (Homo sapiens (Human), UniProt Q9NRH2)
Summary of the method: as §1

SRMS = SRMS (Homo sapiens (Human), UniProt Q9H3Y6)
Summary of the method: as §1

TBK1 = TBK1 (Homo sapiens (Human), UniProt Q9UHD2)
Summary of the method: as §1

TNIK = TNIK (Homo sapiens (Human), UniProt Q9UKE5)
Summary of the method: as §1

VEGFR2 = VEGFR2 (Homo sapiens (Human), UniProt P35968)
Summary of the method: as §1

WNK1 = WNK1 (Homo sapiens (Human), UniProt Q9H4A3)
Summary of the method: as §1

Sequence of MAP3K3 (Q99759 whole entry): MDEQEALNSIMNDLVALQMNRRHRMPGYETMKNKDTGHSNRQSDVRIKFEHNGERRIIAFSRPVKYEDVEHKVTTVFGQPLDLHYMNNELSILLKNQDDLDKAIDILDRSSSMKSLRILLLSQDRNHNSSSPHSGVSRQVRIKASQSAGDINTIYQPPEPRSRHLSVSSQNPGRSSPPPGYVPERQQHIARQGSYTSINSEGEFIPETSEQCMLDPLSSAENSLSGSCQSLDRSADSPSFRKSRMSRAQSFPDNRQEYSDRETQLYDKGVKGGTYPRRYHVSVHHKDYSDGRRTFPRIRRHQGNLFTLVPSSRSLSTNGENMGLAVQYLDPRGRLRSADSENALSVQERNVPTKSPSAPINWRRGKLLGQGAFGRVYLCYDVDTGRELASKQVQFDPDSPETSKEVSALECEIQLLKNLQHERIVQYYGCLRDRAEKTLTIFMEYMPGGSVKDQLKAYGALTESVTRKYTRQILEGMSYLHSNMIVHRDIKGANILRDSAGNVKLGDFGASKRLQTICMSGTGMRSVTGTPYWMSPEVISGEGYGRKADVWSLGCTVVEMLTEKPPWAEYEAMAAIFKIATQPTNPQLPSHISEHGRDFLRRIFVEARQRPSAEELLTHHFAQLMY
Sequence of CIT (O14578 whole entry): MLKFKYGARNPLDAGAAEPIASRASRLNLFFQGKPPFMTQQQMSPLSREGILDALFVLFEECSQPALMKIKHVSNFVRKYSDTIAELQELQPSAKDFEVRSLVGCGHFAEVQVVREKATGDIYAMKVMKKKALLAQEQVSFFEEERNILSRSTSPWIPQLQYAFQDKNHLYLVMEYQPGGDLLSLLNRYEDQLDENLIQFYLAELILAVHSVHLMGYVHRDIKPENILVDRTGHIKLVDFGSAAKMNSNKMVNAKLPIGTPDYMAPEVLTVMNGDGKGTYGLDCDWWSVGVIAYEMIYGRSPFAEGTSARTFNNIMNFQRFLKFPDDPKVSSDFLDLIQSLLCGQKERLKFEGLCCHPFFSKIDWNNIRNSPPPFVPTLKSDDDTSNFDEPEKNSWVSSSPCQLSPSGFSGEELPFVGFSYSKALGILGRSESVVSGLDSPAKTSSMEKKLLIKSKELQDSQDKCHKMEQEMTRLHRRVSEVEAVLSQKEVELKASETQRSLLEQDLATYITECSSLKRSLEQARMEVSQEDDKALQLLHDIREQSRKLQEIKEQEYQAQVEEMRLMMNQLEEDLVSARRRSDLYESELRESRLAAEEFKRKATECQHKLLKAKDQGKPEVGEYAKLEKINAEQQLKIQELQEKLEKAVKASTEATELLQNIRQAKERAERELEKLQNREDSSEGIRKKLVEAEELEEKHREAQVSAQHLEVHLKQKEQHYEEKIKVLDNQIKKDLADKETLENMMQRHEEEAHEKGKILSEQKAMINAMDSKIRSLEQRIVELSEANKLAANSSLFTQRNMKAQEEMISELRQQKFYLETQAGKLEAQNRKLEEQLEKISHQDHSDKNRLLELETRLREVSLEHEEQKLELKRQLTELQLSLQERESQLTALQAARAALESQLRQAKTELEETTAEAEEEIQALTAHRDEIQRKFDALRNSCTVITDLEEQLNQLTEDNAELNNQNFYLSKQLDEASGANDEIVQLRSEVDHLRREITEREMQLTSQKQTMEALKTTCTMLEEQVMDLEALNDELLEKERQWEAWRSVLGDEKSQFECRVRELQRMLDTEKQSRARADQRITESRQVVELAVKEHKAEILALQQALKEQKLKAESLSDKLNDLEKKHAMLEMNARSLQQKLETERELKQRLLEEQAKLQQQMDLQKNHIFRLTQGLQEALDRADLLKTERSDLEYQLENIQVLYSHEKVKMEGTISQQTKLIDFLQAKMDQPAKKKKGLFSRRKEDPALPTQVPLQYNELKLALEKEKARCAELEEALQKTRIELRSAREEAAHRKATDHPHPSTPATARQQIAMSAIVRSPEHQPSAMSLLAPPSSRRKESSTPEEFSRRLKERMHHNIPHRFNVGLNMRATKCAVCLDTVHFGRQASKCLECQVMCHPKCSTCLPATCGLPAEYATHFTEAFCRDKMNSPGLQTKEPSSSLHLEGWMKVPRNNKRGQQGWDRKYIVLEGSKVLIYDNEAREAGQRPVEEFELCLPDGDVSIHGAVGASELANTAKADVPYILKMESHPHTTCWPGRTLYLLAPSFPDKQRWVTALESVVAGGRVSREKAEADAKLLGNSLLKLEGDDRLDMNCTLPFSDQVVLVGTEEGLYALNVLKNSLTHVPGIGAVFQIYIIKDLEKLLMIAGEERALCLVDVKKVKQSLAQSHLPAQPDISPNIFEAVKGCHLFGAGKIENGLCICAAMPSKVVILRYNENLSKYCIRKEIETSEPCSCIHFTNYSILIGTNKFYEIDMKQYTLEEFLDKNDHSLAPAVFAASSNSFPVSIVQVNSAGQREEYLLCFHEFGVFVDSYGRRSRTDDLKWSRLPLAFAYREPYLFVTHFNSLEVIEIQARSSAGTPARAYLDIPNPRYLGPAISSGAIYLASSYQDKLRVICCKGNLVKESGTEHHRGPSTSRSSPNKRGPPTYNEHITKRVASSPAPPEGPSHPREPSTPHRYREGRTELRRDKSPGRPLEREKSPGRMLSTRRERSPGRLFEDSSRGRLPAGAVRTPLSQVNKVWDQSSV
Sequence of ACVR1B (P36896 24-505): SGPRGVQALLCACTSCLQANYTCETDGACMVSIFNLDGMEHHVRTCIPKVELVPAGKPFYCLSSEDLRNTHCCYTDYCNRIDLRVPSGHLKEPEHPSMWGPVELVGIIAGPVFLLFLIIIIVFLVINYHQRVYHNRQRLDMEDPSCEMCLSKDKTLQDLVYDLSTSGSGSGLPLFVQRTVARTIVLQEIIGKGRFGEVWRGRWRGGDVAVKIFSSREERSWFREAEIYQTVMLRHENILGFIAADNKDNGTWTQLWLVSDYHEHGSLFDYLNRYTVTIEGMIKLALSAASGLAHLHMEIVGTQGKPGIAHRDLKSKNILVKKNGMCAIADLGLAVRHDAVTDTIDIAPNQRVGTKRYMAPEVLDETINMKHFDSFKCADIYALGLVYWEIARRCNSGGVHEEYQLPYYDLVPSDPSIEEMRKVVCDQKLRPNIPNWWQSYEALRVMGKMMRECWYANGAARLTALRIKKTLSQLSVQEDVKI
Sequence of RET(V804M) (P07949 29-1114 V804M): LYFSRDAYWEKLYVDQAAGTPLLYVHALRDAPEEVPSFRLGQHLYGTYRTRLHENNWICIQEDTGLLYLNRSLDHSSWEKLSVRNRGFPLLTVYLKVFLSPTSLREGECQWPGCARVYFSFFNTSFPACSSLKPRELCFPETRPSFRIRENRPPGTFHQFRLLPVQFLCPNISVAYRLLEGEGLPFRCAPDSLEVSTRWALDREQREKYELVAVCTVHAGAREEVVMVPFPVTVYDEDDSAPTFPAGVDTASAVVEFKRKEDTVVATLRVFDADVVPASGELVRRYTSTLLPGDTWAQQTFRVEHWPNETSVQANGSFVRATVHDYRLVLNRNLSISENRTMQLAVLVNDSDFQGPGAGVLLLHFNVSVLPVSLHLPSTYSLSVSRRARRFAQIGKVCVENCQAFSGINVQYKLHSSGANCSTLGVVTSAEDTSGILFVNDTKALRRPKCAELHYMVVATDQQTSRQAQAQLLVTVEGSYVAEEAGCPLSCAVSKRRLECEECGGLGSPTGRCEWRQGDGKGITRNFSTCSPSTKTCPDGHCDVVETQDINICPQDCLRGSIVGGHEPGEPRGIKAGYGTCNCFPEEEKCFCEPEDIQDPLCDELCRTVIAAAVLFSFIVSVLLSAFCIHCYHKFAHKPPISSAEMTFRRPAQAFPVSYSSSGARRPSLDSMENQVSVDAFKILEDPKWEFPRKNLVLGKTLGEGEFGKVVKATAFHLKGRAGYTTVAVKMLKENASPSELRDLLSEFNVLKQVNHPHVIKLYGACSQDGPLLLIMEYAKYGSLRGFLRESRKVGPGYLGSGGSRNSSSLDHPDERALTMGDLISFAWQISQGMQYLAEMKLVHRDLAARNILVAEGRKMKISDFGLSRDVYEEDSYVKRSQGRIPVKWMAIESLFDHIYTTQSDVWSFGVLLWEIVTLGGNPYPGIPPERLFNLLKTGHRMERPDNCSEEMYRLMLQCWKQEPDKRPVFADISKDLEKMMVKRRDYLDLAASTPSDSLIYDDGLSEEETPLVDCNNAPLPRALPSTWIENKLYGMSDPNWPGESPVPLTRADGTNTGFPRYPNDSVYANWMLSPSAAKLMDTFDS
Sequence of MKNK2 (Q9HBH9 whole entry): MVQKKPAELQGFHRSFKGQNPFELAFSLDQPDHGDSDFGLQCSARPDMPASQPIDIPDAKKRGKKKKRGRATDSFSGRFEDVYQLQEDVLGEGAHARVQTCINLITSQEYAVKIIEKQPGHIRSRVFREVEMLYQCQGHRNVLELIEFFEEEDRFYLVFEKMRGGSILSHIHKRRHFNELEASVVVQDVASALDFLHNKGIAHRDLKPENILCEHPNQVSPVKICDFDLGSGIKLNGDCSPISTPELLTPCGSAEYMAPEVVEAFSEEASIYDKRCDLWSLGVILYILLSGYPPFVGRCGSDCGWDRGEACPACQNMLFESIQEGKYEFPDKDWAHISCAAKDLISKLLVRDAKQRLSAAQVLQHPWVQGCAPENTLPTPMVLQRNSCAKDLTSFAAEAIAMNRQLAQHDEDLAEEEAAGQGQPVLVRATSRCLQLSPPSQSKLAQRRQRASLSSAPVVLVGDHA
Sequence of CSNK2A2 (P19784 whole entry): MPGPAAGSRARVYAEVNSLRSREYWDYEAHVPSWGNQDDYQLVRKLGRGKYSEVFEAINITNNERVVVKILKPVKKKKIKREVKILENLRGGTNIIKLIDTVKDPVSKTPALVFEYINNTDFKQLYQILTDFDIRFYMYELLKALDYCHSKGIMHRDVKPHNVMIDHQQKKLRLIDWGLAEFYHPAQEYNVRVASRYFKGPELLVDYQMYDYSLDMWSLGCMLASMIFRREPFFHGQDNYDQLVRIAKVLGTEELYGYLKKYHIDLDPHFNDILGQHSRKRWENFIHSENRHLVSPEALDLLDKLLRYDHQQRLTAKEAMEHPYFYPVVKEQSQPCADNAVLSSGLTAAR

SMILES	remaining binding at 1 µM [1] [%]	remaining binding at 1 µM (ACVR1B) [%]	remaining binding at 1 µM (ARK5) [%]	remaining binding at 1 µM (BIKE) [%]	remaining binding at 1 µM (CAMK1G) [%]	remaining binding at 1 µM (CDK8) [%]	remaining binding at 1 µM (CIT) [%]	remaining binding at 1 µM (CSNK1G3) [%]	remaining binding at 1 µM (CSNK2A2) [%]	remaining binding at 1 µM (DDR1) [%]	remaining binding at 1 µM (EGFR(L858R, T790M)) [%]	remaining binding at 1 µM (EPHA4) [%]	remaining binding at 1 µM (EPHA5) [%]	remaining binding at 1 µM (EPHB2) [%]	remaining binding at 1 µM (ERN1) [%]	remaining binding at 1 µM (GAK) [%]	remaining binding at 1 µM (KIT(D816H)) [%]	remaining binding at 1 µM (LYN) [%]	remaining binding at 1 µM (MAP3K3) [%]	remaining binding at 1 µM (MAP3K4) [%]	further results
CCNc1cc(Nc2ccc(C(=O)N3CCC(N4CCOCC4)CC3)cc2OC)nc2[nH]cc(C(F)(F)F)c12 [Example 57, (4-((4-(ethylamino)-3-(trifluoromethyl)-1H-pyrrolo[2,3-b]pyridin-6-yl)amino)-3-methoxyphenyl) (4-morpholinopiperidin-1-yl)methanone]	100	82	94	85	63	90	66	89	80	98	73	94	85	100	61	41	96	100	75	79	remaining binding at 1 µM (GSK3A): 90%; remaining binding at 1 µM (MEK4): 98%; remaining binding at 1 µM (MINK): 100%; remaining binding at 1 µM (MKNK2): 95%; remaining binding at 1 µM (MRCKB): 100%; remaining binding at 1 µM (MYO3A): 70%; remaining binding at 1 µM (NIK): 82%; remaining binding at 1 µM (PAK3): 83%; remaining binding at 1 µM (PDPK1): 86%; remaining binding at 1 µM (PIKFYVE): 77%; remaining binding at 1 µM (PIP5K1A): 88%; remaining binding at 1 µM (RAF1): 72%; remaining binding at 1 µM (RET(V804M)): 95%; remaining binding at 1 µM (SNRK): 100%; remaining binding at 1 µM (SRMS): 96%; remaining binding at 1 µM (TBK1): 85%; remaining binding at 1 µM (TNIK): 94%; remaining binding at 1 µM (VEGFR2): 95%; remaining binding at 1 µM (WNK1): 100%
CCNc1cc(Nc2ccc(C(=O)N3CCC(N4CCOCC4)CC3)cc2OC)nc2[nH]cc(C#N)c12 [Example 18, 4-(ethylamino)-6-((2-methoxy-4-(4-morpholinopiperidine-1-carbonyl)phenyl)amino)-1H-pyrrolo[2,3-b]pyridine-3-carbonitrile]	100	88	94	90	71	100	71	7.1	97	98	81	98	99	87	24	15	80	90	70	96	remaining binding at 1 µM (GSK3A; GSK3A, 1 uM): 100%; remaining binding at 1 µM (MEK4): 0%; remaining binding at 1 µM (MINK): 55%; remaining binding at 1 µM (MKNK2): 60%; remaining binding at 1 µM (MRCKB): 92%; remaining binding at 1 µM (MYO3A): 71%; remaining binding at 1 µM (NIK): 25%; remaining binding at 1 µM (PAK3): 93%; remaining binding at 1 µM (PDPK1): 99%; remaining binding at 1 µM (PIKFYVE): 99%; remaining binding at 1 µM (PIP5K1A): 100%; remaining binding at 1 µM (RAF1): 97%; remaining binding at 1 µM (RET(V804M)): 99%; remaining binding at 1 µM (SNRK): 100%; remaining binding at 1 µM (SRMS): 80%; remaining binding at 1 µM (TBK1): 76%; remaining binding at 1 µM (TNIK): 89%; remaining binding at 1 µM (VEGFR2): 63%; remaining binding at 1 µM (WNK1): 93%
